Measured values: patent publication US20180353460A1, “METHODS OF TREATING UROLOGICAL DISORDERS USING SARMs” (priority 2014, published 2018)
Where “and” joins values, the source holds several entries; their conditions need not be identical. Equal entries are not always repeated. Entries after “also recorded” stand apart in the source; their conditions may differ.

Columns and labels:
[1] = test system: prostate, seminal vesicles and levator ani muscle; experiment: Androgenic and anabolic activity in castrated (ORX) male rats, daily oral gavage for fourteen days; type: in vivo, rat; details: for ED50 in levator ani / ED50 in prostate / ED50 in seminal vesicles / Emax in levator ani / Emax in prostate / Emax in seminal vesicles: ORX rats, nonlinear regression; for dose that fully maintained or restored levator ani muscle weight (100% of intact) / levator ani muscle weight / prostate weight / seminal vesicle weight: castrated (ORX) rats; for levator ani muscle weight / prostate weight / seminal vesicle weight: oral gavage 14 days
Description: Male Sprague-Dawley rats weighing approximately 200 g were purchased from Harlan Bioproducts for Science (Indianapolis, Ind.). […] The anabolic and androgenic activity of compound of Formula VIII in intact animals was tested, as well as a dose response evaluation in acutely orchidectomized (ORX) animals. Regenerative effects of the compound of Formula VIII in chronically (9 days) ORX rats was similarly evaluated.
The test article for this study was weighed and dissolved in 10% DMSO (Fisher) diluted with PEG 300 (Acros Organics, NJ) for preparation of the appropriate dosage concentrations. […] Animals were randomly assigned to one of seven groups consisting of 4 to 5 animals per group. Control groups (intact and ORX) were administered vehicle daily. Compound of Formula VIII was administered via oral gavage at doses of 0.01, 0.03, 0.1, 0.3, 0.75, and 1 mg/day to both intact and ORX groups. Where appropriate, animals were castrated on day one of the study. Treatment with compound of Formula VIII began nine days post ORX and was administered daily via oral gavage for fourteen days.
(§1) In addition, ventral prostate, seminal vesicles, and levator ani muscle were removed, individually weighed, normalized to body weight, and expressed as a percentage of intact control. Student's T-test was used to compare individual dose groups to the intact control group. Significance was defined a priori as a P-value <0.05. Ventral prostate and seminal vesicle weights were evaluated as a measure of androgenic activity, whereas levator ani muscle weight was evaluated as a measure of anabolic activity. Blood was collected from the abdominal aorta, centrifuged, and sera were frozen at −80° C. prior to determination of serum hormone levels. Serum luteinizing hormone (LH) and follicle stimulating hormone (FSH) concentrations were determined.
Male Sprague-Dawley rats weighing approximately 200 g were purchased from Harlan Bioproducts for Science (Indianapolis, Ind.). […] Anabolic and androgenic activity of compound of Formula IX in intact animals was evaluated, and the dose response in acutely orchidectomized (ORX) animals was evaluated as well. Regenerative effects of compound of Formula IX in chronically (9 days) ORX rats were also assessed.
The compound was weighed and dissolved in 10% DMSO (Fisher) diluted with PEG 300 (Acros Organics, NJ) for preparation of the appropriate dosage concentrations. […] Intact and ORX animals were randomly assigned to one of seven groups consisting of 4 to 5 animals per group. Control groups (intact and ORX) were administered vehicle daily. Compound of Formula IX was administered via oral gavage at doses of 0.01, 0.03, 0.1, 0.3, 0.75, and 1 mg/day to both intact and ORX groups.
as §1, with “Castrated animals (on day one of the study) were randomly assigned to dose groups (4-5 animals/group) of 0.01, 0.03, 0.1, 0.3, 0.75, and 1 mg/day, for dose-response evaluation. Dosing began nine days post ORX and was administered daily via oral gavage for fourteen days. […] In” for “In”, “As a measure of androgenic activity, ventral” for “Ventral”, “evaluated,” for “evaluated as a measure of androgenic activity,”, “lutenizing” for “luteinizing”
Male Sprague-Dawley rats weighing approximately 200 g were purchased from Harlan Bioproducts for Science (Indianapolis, Ind.).

[2] = test system: pelvic floor muscles; experiment: Pelvic floor muscle weight, body weight, lean mass and histology in ovariectomized female mice; type: in vivo, mouse; details: OVX mice, 0.5-5 mg/kg/day p.o., 28 days; for pelvic floor muscle weight (cumulative COC, Pc and IL): vs OVX animals
Description: Six to eight week old female mice (n=5-7) purchased from JAX® Mice were ovariectomized (OVX) or sham operated. Twenty days after OVX, treatment was initiated as outlined in the table below. Compounds of Formulas IX and VIII were dissolved in DSMO/PEG 300 (15:85) and were administered by oral gavage. Body weight and MRI measurements, to evaluate total body lean mass, were recorded at the beginning and at the end of the treatment. The animals were treated for twenty-eight days and then sacrificed, pelvic floor muscles isolated, weighed and stored for RNA and protein extraction. The expression of genes involved in catabolism and anabolism of muscle was measured by mRNA analysis. The serum concentrations of the drugs were measured by LC-MS/MS. The statistical analysis was performed using JMP Pro® software utilizing one way analysis of variance.
Pelvic floor muscles were paraffin embedded and sections were stained for collagen (Mason trichrome) and elastin (Van Gieson). Stains were evaluated by a pathologist for fiber length and stain intensity.
The pelvic floor muscles in mice are small making the unmagnified visualization difficult. In order to improve the resolution, the pelvic regions of the mice were immersed in formalin for two days after sacrifice before dissecting them under microscope along with precise weight measurement. The COC, Pc, and IL were isolated and weighed using a microbalance that has a resolution as low as a microgram.
Six to eight week old female mice (n=6-8/group) were ovariectomized (OVX) or sham operated. One month after OVX, when the serum hormone levels were at trough, body composition was measured by MRI and treatment was initiated with vehicle or a dose response of one of two SARMs. Twenty eight days after treatment initiation, body composition was again measured, animals were sacrificed, and pelvic floor muscles were weighed. Serum drug concentrations were measured by LC-MS/MS. Muscle sections were stained for collagen and elastin to evaluate the effect of SARMs on architecture. Data were analyzed by One Way ANOVA followed by Tukey test.

Row | Structure (SMILES) | ED50 in levator ani [1] [mg/day] | ED50 in prostate [1] [mg/day] | levator ani muscle weight ([1]; 0.01 mg/day) | prostate weight ([1]; 0.01 mg/day) | seminal vesicle weight ([1]; 0.01 mg/day) | levator ani muscle weight ([1]; 0.03 mg/day) | prostate weight ([1]; 0.03 mg/day) | seminal vesicle weight ([1]; 0.03 mg/day) | levator ani muscle weight ([1]; 0.1 mg/day) | prostate weight ([1]; 0.1 mg/day) | seminal vesicle weight ([1]; 0.1 mg/day) | levator ani muscle weight ([1]; 0.3 mg/day) | prostate weight ([1]; 0.3 mg/day) | seminal vesicle weight ([1]; 0.3 mg/day) | levator ani muscle weight ([1]; 0.75 mg/day) | prostate weight ([1]; 0.75 mg/day) | seminal vesicle weight ([1]; 0.75 mg/day) | levator ani muscle weight ([1]; 1 mg/day) | prostate weight ([1]; 1 mg/day) | seminal vesicle weight ([1]; 1 mg/day) | also measured
1 | C[C@](O)(COc1ccc(C#N)c(F)c1)C(=O)Nc1ccc(C#N)c(C(F)(F)F)c1 [XIII, (S)—N-(4-cyano-3-(trifluoromethyl)phenyl)-3-(4-cyano-3-fluorophenoxy)-2-hydroxy-2-methylpropanamide] | 0.03 ± 0.01 | 0.21 ± 0.04 | 71%±4% | 24%±4% | 15%±2% | 101%±15% | 37%±9% | 25%±9% | 125%±20% | 50%±11% | 67%±20% | 126%±14% | 88%±16% | 113%±6% | 151±9% | 132%±16% | 155%±16% | 143±17% | 118±12% | 160%±7% | ED50 in seminal vesicles [1]: 0.2 ± 0.04 mg/day; Emax in levator ani [1]: 147%±10%; Emax in prostate [1]: 147%±10%; Emax in seminal vesicles [1]: 188%±135%; dose that fully maintained or restored levator ani muscle weight (100% of intact) ([1]; oral gavage): 0.03 mg/day
2 | C[C@](O)(COc1ccc(C#N)cc1)C(=O)Nc1ccc(C#N)c(C(F)(F)F)c1 [Compound IX, (S)—N-(4-Cyano-3-(trifluoromethyl)phenyl)-3-(4-cyanophenoxy)-2-hydroxy-2-methylpropanamide] | 0.02 ± 0.01 | 0.09 ± 0.07 | 59%±6% | 8%±2% | 12%±4% | 85%±9% | 20%±5% | 17%±5% | 112%±10% | 51%±19% | 35%±10% | 122%±16% | 56%±9% | 61%±15% | 127±12% | 80%±28% | 70%±14% | 129.66±2% | 74±12.5% | 80%±6% | ED50 in seminal vesicles [1]: 0.17 ± 0.05 mg/day; Emax in levator ani [1]: 131%±2%; Emax in prostate [1]: 83%±25%; Emax in seminal vesicles [1]: 85%±11%; dose that fully maintained or restored levator ani muscle weight (100% of intact) ([1]; oral gavage): > 0.1 mg/day; pelvic floor muscle weight (cumulative COC, Pc and IL) [2]: increase the weight of pelvic floor muscles
3 | C[C@](O)(COc1ccc(C#N)cc1)C(=O)Nc1ccc(C#N)c(Cl)c1 [VIII, (S)—N-(3-Chloro-4-cyanophenyl)-3-(4-cyanophenoxy)-2-hydroxy-2-methylpropanamide] |  |  | 52%±8% | 17%±6% | 10%±3% | 67%±9% | 31%±3% | 13%±4% | 98%±10% | 43%±15% and 43±15% | 21%±6% | 103%±12% | 54%±17% | 43%±8% | 105%±12% | 58%±10% | 51%±9% | 110%±17% and 110±17% | 73%±12% and 73±12% | 69%±14% | anabolic ratio muscle/prostate weight ([1]; castrated rats, 0.01 mg/day): 3.02; anabolic ratio muscle/prostate weight ([1]; castrated rats, 0.03 mg/day): 2.13; anabolic ratio muscle/prostate weight ([1]; castrated rats, 0.1 mg/day): 2.27; anabolic ratio muscle/prostate weight ([1]; castrated rats, 0.3 mg/day): 1.90; anabolic ratio muscle/prostate weight ([1]; castrated rats, 0.75 mg/day): 1.83; anabolic ratio muscle/prostate weight ([1]; castrated rats, 1 mg/day): 1.51; derived dose that would restore levator ani muscle weight to 100% ([1]; castrated rats, oral gavage): 0.1 mg/day; total lean body mass by MRI [2]: more potent than Compound IX in increasing lean mass; pelvic floor muscle weight (cumulative COC, Pc and IL) [2]: performed better than compound of Formula IX in increasing the muscle weights; also recorded: increase the weight of pelvic floor muscles; coccygeus (COC) muscle weight ([2]; vs OVX controls): more potent than Compound IX
